The values that follow come from patent US20240139149A1, “THERAPEUTIC USES OF UROLITHIN DERIVATIVES” (Vandria SA, priority 2022, published 2024).

The subject of the assay is APTK-OVA tumors. The assay is described as follows: Adoptive transfer of UA-conditioned OT-1 T cells into Rag1−/− mice. Format: in vivo, mouse. As to the method: For adoptive cell transfer, purified splenic T cell from OT1 mice were isolated and activated using αCD3/αCD28 stimulation beads for 48 h. After magnetic bead removal, 1×10^6 T of activated T cell were intravenously injected into Rag1−/− recipients. To study survival of transferred T cells, stimulated OT-1 T cells were injected into mice without tumors. Subsequently, after 7 days, spleens were isolated and splenocytes were stained for the CD8+ subsets as described below. To understand antitumor immunity conferred by transferred OT-1 lymphocytes, cells were injected into mice carrying APTK-OVA tumors 10 days after subcutaneous organoid transplantation. Tumor growth was assessed as described above. Mice were kept under regular chow food for the T cell adoptive transfer experiment and sacrificed collectively when maximum tumor diameter extended 1.5 cm.
Tumors were minced and digested with Tumor & Tissue Dissociation Reagent (BD Horizon) for 30 min. The remaining organ pieces were filtered through a 70 µm cell strainer. Cells were then washed with PBS 1% BSA and 2 mM EDTA. Immune cells were enriched on a 30%/40%/75% Percoll gradient after a 1700 rpm 17 min centrifugation. Then, tumor immune filtrates or activated T cells were stained with Fixable Viability Dye-eF780 (65-0865-14; eBioscience), αCD45-FITC (30-F11; 11-0451-85; eBioscience), αCD11b-BV650 (M1/70; 56340; BD) α-CD11c-BV785 (HL3; 563735; BD), aLy6G-BV605 (53-6.7; 563005; BD), aLy6C-AF700 (HK1.4; 128024; Biolegend), aF4/80-PE (BM8; 12-4801-82, eBioscience), aPD-L1-PECy7 (MIH5; 25-5982-80, eBioscience); or with Fixable Viability Dye-eF780 (ebioscience), αCD45-BV786 (30-F11; 564225; BD), αCD4-BUV496 (GK1.5; 564667; BD), αCD8-BV605 (100744; Biolegend), aPD1-APC (J43; 17-9985-82; eBioscience), aTIM-3-PECy7 (RMT3-23; 119715; Biolegend), aCTLA4-PE (UC10-4B9; 106305; Biolegend) and aLag3-BV421 (C9B7W; 125221, Biolegend); or with Fixable Viability Dye-eF780 (eBioscience), αCD4-FITC (H129.19; 553650; BD), αCD8-APC (53-6.7; 17-0081-83; eBioscience), αCD44-AF400 (IM7; 103026; Biolegend), αCD62L-BV785 (MEL-14; 104440; Biolegend), αSca-1-PerCP-Cy5.5 (D7; 45-5981-82; eBioscience), αCD95-PE (Jo2; 554258; BD); or with Fixable Viability Dye-eF780 (eBioscience), αCD8-BV650 (53-6.7; 563234; BD), αCD4-BUV496 (GK1.5; 564667; BD), αCD127-APC (A7R34; 17-1271-82; eBioscience), αCD95-FITC (SA367H8;152605; Biolegend), αCD44-AF400 (IM7; 103026; Biolegend), αCD62L-BV785 (MEL-14; 104440; Biolegend), αSca-1-PerCP-Cy5.5 (D7; 45-5981-82; eBioscience) followed by intracellular staining of aTCF1-PE (S33-966; 564217; BD), or PGC-1α (sc-518025; D-5; santa cruz), or aCyclinD1 (MA5-28534, DCS-6; Invitrogen) with transcription factor buffer set kit (BD Biosciences). To study cytokine expression, tumor immune infiltrates were stimulated ex vivo with 20 ng/mL PMA and […] Ionomycin (Sigma) for 3 h in T cell activation medium with Brefeldin A (Biolegend). For T cell in vitro activation experiments over several days, Brefeldin A was added to the medium for the last 3 hours. Cells were then stained with Fixable Viability Dye-eF780 (eBioscience), αCD8-PeCy7 (53.6-7; 100722; Biolegend), αCD4-AF700 (GK1.5; 100429; Biolegend), and intracellular staining for cytokine assessment was performed with BD Cytofix/Cytoperm (BD) with 20 min fixation and overnight incubation with αGranzyme B-FITC (GB11; 515403; Biolegend), αIFNγ-PerCPCy5.5 (XMG1.2; 45-7311-82; eBioscience) and αTNFa-BV711 (MP6-XT22; 563944; BD). For flow cytometric analysis of mitochondria and lysosomes 500 μl of Mitotracker Red (200 nM; ThermoFisher) or Lysotracker Red DND-99 (75 nM; ThermoFisher) were applied followed by surface staining. To study changes in mitochondrial membrane potential, Mitoprobe TMRM kit (ThermoFisher) was used according to the manufacturer's instructions. Cell proliferation was assessed by CellTrace Violet (Invitrogen, C34557) at a concentration of […] according to manufacturer's instructions. […]

As for `O=c1oc2cc(O)ccc2c2ccc(O)cc12` [UA, Urolithin A], for the setting “UA-T cell transfer”, the “CD62L expression in CD8+ TIL” value was “remained unchanged”, the “expression of CD44 in CD8+ TIL” value is recorded as “lower expression” and the “number of TCF1HiCD8+ tumor infiltrating T cells” value is on record as “higher number”. In addition, the “suppression of APTK-OVA tumors” value (UA-conditioned vs control OT-I T cells) is given as “more substantial tumor suppression”. Under “UA-pretreated T cells”, the “Tim3HiPD1Hi terminally exhausted CD8+ T cells in the TME” value is on record as “less”.
